Test results from patent US12637435B2, “Nitrogen-containing heterocyclic compound or salt thereof, use thereof, and intermediate thereof” (FUJIFILM Corporation, priority 2020, dated 2026).

How the values were obtained:
[1] = tested on: human myeloid leukemia cell line HL60; assay: Cell growth test, HL60 (CellTiter-Glo); type: cell-based; conditions: HL-60, 72 h, HL60 cells, 3 days, CellTiter-Glo luminescence, read-out: Cell growth inhibitory effect (GI50)
Method: The cell growth test was carried out using the human myeloid leukemia cell line HL60 (available from ATCC, CRL-240). As a culture medium of HL60 cells, RPMI 1640 (available from FUJIFILM Wako Pure Chemical Corporation, 189-02025) supplemented with 10% fetal bovine serum (available from Thermo Fisher Scientific, Inc., 10437-028), and 1% penicillin-streptomycin (10,000 U/mL, available from Thermo Fisher Scientific, Inc., 15140-122) was used. HL60 cells were seeded on a 384-well plate (available from Corning Inc., 4588) at a cell density of 1×10^3 cells/20 μL/well. After culturing overnight, 5 μL of the test compound having a predetermined concentration was added, and 3 days later, 25 μL of CellTiter-Glo (registered trademark) Luminescent Cell Viability Assay (available from Promega Corporation, G7573) was added, and then the amount of luminescence was measured using an EnVision plate reader (available from PerkinElmer, Inc.). Since the amount of luminescence is proportional to the intracellular concentration of adenosine triphosphate (ATP), the amount of luminescence was used as an indicator of the number of viable cells. The growth inhibitory concentration for each test compound concentration was calculated by the following expression.
(§1) The growth inhibition rate at each test compound concentration was determined, and the 50% growth inhibitory concentration [GI50 (nmol/L)] was calculated using XLfit. Growth inhibition rate (%)=(amount of luminescence in test compound-added well)/(amount of luminescence in DMSO-added well)×100
The abbreviations in the table have the following meanings. • A: GI50 value<100 nmol/L • B: 100 nmol/L≤GI50 value<1,000 nmol/L • C: 1,000 nmol/L≤GI50 value

recombinant human DHODH = target: T1, recombinant human DHODH (Homo sapiens, UniProt Q02127); assay: DHODH enzyme reaction inhibition test (DCIP-coupled assay); type: biochemical; conditions: recombinant human DHODH 0.175 μg/mL, DCIP absorbance 600 nm, 50 minutes, pH 8.0; read-out: Enzyme reaction inhibitory effect (IC50)
T1 construct: DHODH, 31-395aa, Human, His tag, E. coli, ATGP1615; His tag; purchased ATGen Co. Ltd. ATGP1615; host or cells: E. coli
Method: The DHODH enzyme assay was carried out with reference to “Benjamin Bader, Wolfgang Knecht, Markus Fries, and Monika Loffler, Expression, Purification, and Characterization of Histidine-Tagged Rat and Human Flavoenzyme Dihydroorotate Dehydrogenase, Protein Expression and Purification, 1998, 13, 414-422.”
The DHODH activity was evaluated using an enzyme assay system that is coupled with an assay in which a blue coloring agent 2,6-dichlorophenolindophenol (DCIP, available from MP Biomedicals, LLC, MP150118) is quenched. Purified recombinant human DHODH (DHODH, 31-395aa, Human, His tag, E. coli, ATGP1615) was purchased from ATGen Co. Ltd. The enzyme assay was carried out in a 384-well plate using a buffer solution containing 100 mmol/L Hepes (available from Dojindo Laboratories, 342-01375), 400 mmol/L NaCl (available from FUJIFILM Wako Pure Chemical Corporation, 191-01665), 10% Glycerol (available from FUJIFILM Wako Pure Chemical Corporation, 075-00616), 0.05% Triton X-100 (available from Sigma-Aldrich Co., LLC, T8787-100ML), 0.2 mmol/L Ubiquinone-10 (available from FUJIFILM Wako Pure Chemical Corporation, 216-00761), 0.1 mmol/L DHO (L-dihydroorotic acid, available from Sigma-Aldrich Co., LLC, D7128), 0.5% DMSO (dimethylsulfoxide, available from FUJIFILM Wako Pure Chemical Corporation, 047-29353), 0.175 μg/mL DHODH, and 0.12 mmol/L DCIP and having a pH adjusted to 8.0 by adding 5 mol/L potassium hydroxide (available from FUJIFILM Wako Pure Chemical Corporation, 168-21815). A test compound with a predetermined concentration was added using Biomek NX (available from Beckman Coulter Inc.), and the enzyme reaction was started by adding the substrate. The enzyme activity was assessed by measuring the decrease in DCIP absorbance (600 nm) for 50 minutes using an EnVision plate-reading spectrophotometer (available from PerkinElmer, Inc.).
as §1, with “enzyme reaction” for “growth”, “enzyme reaction inhibition” for “growth inhibitory”, “[IC50” for “[GI50”, “Enzyme reaction” for “Growth”
The abbreviations in the table have the following meanings. • A: IC50 value<10 nmol/L • B: 10 nmol/L≤IC50 value<100 nmol/L • C: 100 nmol/L≤IC50 value

T1 sequence (Q02127 31-395): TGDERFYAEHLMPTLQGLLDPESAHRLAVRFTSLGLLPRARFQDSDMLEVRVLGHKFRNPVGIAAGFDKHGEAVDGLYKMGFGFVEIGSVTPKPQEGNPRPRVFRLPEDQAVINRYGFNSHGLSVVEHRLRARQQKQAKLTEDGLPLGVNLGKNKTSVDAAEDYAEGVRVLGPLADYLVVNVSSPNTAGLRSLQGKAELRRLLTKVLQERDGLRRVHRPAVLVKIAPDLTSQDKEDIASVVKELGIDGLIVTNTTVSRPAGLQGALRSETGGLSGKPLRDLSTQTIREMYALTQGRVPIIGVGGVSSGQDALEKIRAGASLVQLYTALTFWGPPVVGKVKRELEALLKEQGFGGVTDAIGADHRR

Compound | GI50 [1] [nM] | IC50 (recombinant human DHODH) [nM]
CCOc1c(Nc2ncc(C3CC3)nc2C(=O)NS(C)(=O)=O)cccc1C1=CCOCC1 [Example 3-57] | < 100 | < 10
N#Cc1cccc(-c2cccc(Nc3ncc(C4CC4)nc3C(=O)O)c2OCC(F)(F)F)c1 [Example 2-9] | < 100 | < 10
O=C(NS(=O)(=O)C(F)(F)F)c1nc(C2CC2)cnc1Nc1cccc(C2=CCOCC2)c1OCC(F)(F)F [Example 3-18] | ≥ 1000 | 10 to 100
O=c1[nH]c(-c2nc(C3CC3)cnc2Nc2cccc(C3=CCOCC3)c2OCC(F)(F)F)no1 [Example 1-7, 3-(6-cyclopropyl-3-((3-(3,6-dihydro-2H-pyran-4-yl)-2-(2,2,2-trifluoroethoxy)phenyl)amino)pyrazin-2-yl)-1,2,4-oxadiazol-5(4H)-one] | 100 to 1000 | < 10
CS(=O)(=O)NC(=O)c1nc(C2CC2)cnc1Nc1cccc(-c2ccc(C#N)cc2)c1OC(F)F [Example 3-51] | 100 to 1000 | < 10
NC(=O)c1nc(C2CC2)cnc1Nc1cccc(C2=CCOCC2)c1OCC(F)(F)F [Example 1-1, 6-cyclopropyl-3-((3-(3,6-dihydro-2H-pyran-4-yl)-2-(2,2,2-trifluoroethoxy)phenyl)amino)pyrazine-2-carboxamide] | < 100 | 10 to 100
CCc1c(Nc2ncc(C3CC3)nc2C(=O)NS(C)(=O)=O)cccc1C1CCOCC1 [Example 3-48] | 100 to 1000 | 10 to 100
C[C@H](Oc1c(Nc2ncc(C3CC3)nc2C(=O)NC#N)cccc1C1=CCOCC1)C(F)(F)F [Example 3-31] | < 100 | < 10
C[C@H](Oc1c(Nc2nnc(C3CC3)cc2C(=O)NS(C)(=O)=O)cccc1C1CCOCC1)C(F)(F)F [Example 3-63] | ≥ 1000 | 10 to 100
N#Cc1ccc(-c2cccc(Nc3ncc(C4CC4)nc3C(=O)NS(N)(=O)=O)c2OC(F)F)cc1 [Example 3-52] | 100 to 1000 | 10 to 100
CS(=O)(=O)NCc1nc(C2CC2)cnc1Nc1cccc(C2=CCOCC2)c1OCC(F)(F)F [Example 1-15, N-((6-cyclopropyl-3-((3-(3,6-dihydro-2H-pyran-4-yl)-2-(2,2,2-trifluoroethoxy)phenyl)amino)pyrazin-2-yl)methyl)methanesulfonamide] | ≥ 1000 | ≥ 100
O=Cc1nc(C2CC2)cnc1Nc1cccc(C2=CCOCC2)c1OCC(F)(F)F [Example 1-14, 6-cyclopropyl-3-((3-(3,6-dihydro-2H-pyran-4-yl)-2-(2,2,2-trifluoroethoxy)phenyl)amino)pyrazine-2-carbaldehyde] | ≥ 1000 | ≥ 100
C[C@H](Oc1c(Nc2ncc(C3CC3)nc2C(=O)NC#N)cccc1C1CCOCC1)C(F)(F)F [Example 3-14] | < 100 | < 10
CNS(=O)(=O)NC(=O)c1nc(C2CC2)cnc1Nc1cccc(C2=CCOCC2)c1OCC(F)(F)F [Example 3-20] | 100 to 1000 | 10 to 100
N#CNCc1nc(C2CC2)cnc1Nc1cccc(C2=CCOCC2)c1OCC(F)(F)F [Example 1-16, N-((6-cyclopropyl-3-((3-(3,6-dihydro-2H-pyran-4-yl)-2-(2,2,2-trifluoroethoxy)phenyl)amino)pyrazin-2-yl)methyl)cyanamide] | 100 to 1000 | 10 to 100
C[C@H](Oc1c(Nc2ncc(C3CC3)nc2C(=O)NS(C)(=O)=O)cccc1C1=CCOCC1)C(F)(F)F [Example 3-32] | < 100 | < 10
CCOc1c(Nc2ncc(C3CC3)cc2C(=O)O)ccc(F)c1C1=CCOCC1 [Example 2-15] | < 100 | < 10
N#Cc1ccc(-c2cccc(Nc3ncc(C4CC4)cc3C(=O)O)c2OCC(F)(F)F)cc1 [Example 2-7] | < 100 | < 10
